Experimental findings from patent US12139520B2 (priority 2020, dated 2024) are described below.

pEC50: −log10 of the molar value. Bridge positions count the residues as written; N and C are the ends. Square brackets hold non-standard residues; d marks the D form. Peptide text beside a SMILES is read from it. Hyp = O=C(O)[C@@H]1C[C@@H](O)CN1; Cit = NC(=O)NCCC[C@H](N)C(=O)O

One data set has as its target T1, hAMY3 receptor (Homo sapiens, UniProt O60896+P30988).
T1 sequence (P30988 25-474): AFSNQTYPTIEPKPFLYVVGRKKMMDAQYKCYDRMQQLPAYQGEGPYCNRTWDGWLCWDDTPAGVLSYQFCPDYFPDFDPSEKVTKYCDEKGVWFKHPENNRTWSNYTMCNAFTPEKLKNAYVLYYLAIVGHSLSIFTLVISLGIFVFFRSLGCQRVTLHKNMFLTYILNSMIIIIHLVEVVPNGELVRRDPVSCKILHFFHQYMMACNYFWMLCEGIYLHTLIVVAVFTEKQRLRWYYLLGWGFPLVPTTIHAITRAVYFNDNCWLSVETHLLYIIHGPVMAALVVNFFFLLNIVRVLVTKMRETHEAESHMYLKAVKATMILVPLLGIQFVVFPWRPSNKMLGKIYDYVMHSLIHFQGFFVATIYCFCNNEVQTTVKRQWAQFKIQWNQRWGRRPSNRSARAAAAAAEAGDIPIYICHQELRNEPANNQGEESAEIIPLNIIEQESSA
T1 sequence (O60896 24-148 partner): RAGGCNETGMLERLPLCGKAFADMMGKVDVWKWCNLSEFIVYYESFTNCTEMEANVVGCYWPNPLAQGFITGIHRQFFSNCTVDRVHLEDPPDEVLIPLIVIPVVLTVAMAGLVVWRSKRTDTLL
The experiment in a line: cAMP assay for in vitro receptor activation, hAMY3-R. The data set is classed as cell-based. The conditions noted are these: cAMP assay, hAMY3 receptor; read-out: hAMY3R EC50. The essentials:
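Monoclonal cell line stably overexpressing hAMY3 receptor, plated in DPBS with 0.05% casein and 0.5 mM IBMX, was stimulated with graded compound doses for 30 min at room temperature. cAMP accumulation was read by time-resolved FRET one hour after adding detection reagents.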
For orientation: cAMP levels reflect the balance of adenylyl cyclase and phosphodiesterase activity.

The target in the next data set is hAM1 receptor (Homo sapiens, UniProt O60895+Q16602). Kind of data set: cAMP assay for in vitro receptor activation, hAM1-R. Type of data set: cell-based. The conditions noted are these: cAMP assay, hAM1 receptor; read-out: hAM1R EC50. The essentials: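 Read-out is intracellular cAMP as a measure of receptor activation. Cells stably overexpressing hAM1 were subcloned to a monoclonal line, then thawed and seeded at 8000 cells/well in DPBS with 0.05% casein and the phosphodiesterase inhibitor IBMX at 0.5 mM.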

Data set [1] is described as follows: Physical stability of peptide analogues (Thioflavin T fibrillation). The data set is classed as physicochemical. The conditions noted are these: maximum ThT signal normalized between hAMY maximum and buffer background; 40° C., shaking, four days; pH 7 per table title. In short, it runs like this: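 1 h in 50 mM NaOAc pH 4 / 50 mM NaPi pH 7; + ThT 4 μM final; 40 °C, 700 rpm linear shake 5 min pre-read; ex 450, em 480 nm q10 min × 4 d; LOESS smoothing; max signal normalised to hAMY max vs buffer blank.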

hAM1 receptor, sequence (Q16602 23-461): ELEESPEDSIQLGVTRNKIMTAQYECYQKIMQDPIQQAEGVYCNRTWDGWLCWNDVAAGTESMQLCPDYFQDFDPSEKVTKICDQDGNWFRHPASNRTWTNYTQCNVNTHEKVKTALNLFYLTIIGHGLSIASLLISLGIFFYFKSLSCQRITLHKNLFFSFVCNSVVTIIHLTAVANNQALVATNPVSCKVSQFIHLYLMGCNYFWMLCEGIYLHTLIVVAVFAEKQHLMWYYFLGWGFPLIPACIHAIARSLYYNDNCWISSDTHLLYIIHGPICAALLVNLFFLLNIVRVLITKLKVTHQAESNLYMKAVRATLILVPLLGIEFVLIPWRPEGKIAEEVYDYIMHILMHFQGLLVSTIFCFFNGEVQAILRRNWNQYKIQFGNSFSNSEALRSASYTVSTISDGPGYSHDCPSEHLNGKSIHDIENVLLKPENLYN
hAM1 receptor, sequence (O60895 43-175 partner): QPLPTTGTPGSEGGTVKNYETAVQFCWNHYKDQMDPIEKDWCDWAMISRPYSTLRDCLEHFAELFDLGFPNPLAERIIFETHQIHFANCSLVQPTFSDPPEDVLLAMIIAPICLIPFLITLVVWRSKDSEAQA

The pEC50 is −log10 of the EC50, conventionally taken in molar units. In the case of `CC[C@H](C)[C@H](NC(=O)[C@H](CC(N)=O)NC(=O)[C@H](CO)NC(=O)[C@H](CCCNC(=N)N)NC(=O)[C@@H]1CCCN1C(=O)[C@H](C)NC(=O)[C@@H](NC(=O)[C@H](CC(N)=O)NC(=O)[C@H](CC(=O)O)NC(=O)[C@H](CCCCN)NC(=O)[C@H](CC(=O)O)NC(=O)[C@H](CCCCN)NC(=O)[C@H](CC(=O)O)NC(=O)[C@@H](NC(=O)[C@H](Cc1ccccc1)NC(=O)[C@H](CCC(N)=O)NC(=O)[C@H](Cc1ccc(O)cc1)NC(=O)[C@@H](NC(=O)[C@H](CCC(N)=O)NC(=O)[C@H](Cc1c[nH]cn1)NC(=O)[C@H](C)NC(=O)[C@H](CC(C)C)NC(=O)[C@H](CCCNC(N)=O)NC(=O)[C@H](CCC(N)=O)NC(=O)[C@@H](NC(=O)[C@@H](NC(=O)[C@@H]1CSSC[C@H](NC(=O)CN)C(=O)N[C@@H](CCCNC(=N)N)C(=O)N[C@@H]([C@@H](C)O)C(=O)NCC(=O)N[C@@H]([C@@H](C)O)C(=O)N1)[C@@H](C)O)C(C)C)[C@@H](C)CC)[C@@H](C)O)C(C)C)C(=O)NCC(=O)N1CCC[C@H]1C(=O)N[C@@H](CC(N)=O)C(=O)NCC(=O)N1C[C@H](O)C[C@H]1C(N)=O` [compound 297] (H-GCRTGTCTVQ[Cit]LAHQIYQFTDKDKDNVAPRSNIGPNG[Hyp]-NH2; disulfide 2-7; N-terminus assumed), the pEC50 at hAMY3 receptor is 10.59; at hAM1 receptor, less than 5.30. Also, the “Max ThT signal (%)” value in data set [1] turned out to be 27.500%.
In the same order, the values of `CC[C@H](C)[C@H](NC(=O)[C@H](CCC(N)=O)NC(=O)[C@H](Cc1c[nH]cn1)NC(=O)[C@H](C)NC(=O)[C@H](CC(C)C)NC(=O)[C@H](CCCNC(=N)N)NC(=O)[C@H](CCC(N)=O)NC(=O)[C@@H](NC(=O)[C@@H](NC(=O)[C@@H]1CSSC[C@H](NC(=O)CN)C(=O)N[C@@H](CCCNC(=N)N)C(=O)N[C@@H]([C@@H](C)O)C(=O)NCC(=O)N[C@@H]([C@@H](C)O)C(=O)N1)[C@@H](C)O)C(C)C)C(=O)N[C@@H](Cc1ccc(O)cc1)C(=O)N[C@@H](CCC(N)=O)C(=O)N[C@@H](Cc1ccccc1)C(=O)N[C@H](C(=O)N[C@@H](CC(=O)O)C(=O)N[C@@H](CCCCN)C(=O)N[C@@H](Cc1ccccc1)C(=O)N[C@@H](CCCCN)C(=O)N[C@@H](CC(=O)O)C(=O)N[C@@H](CC(N)=O)C(=O)N[C@H](C(=O)N[C@@H](C)C(=O)N1CCC[C@H]1C(=O)N[C@@H](CCCNC(=N)N)C(=O)N[C@@H](CO)C(=O)N[C@@H](CCCCN)C(=O)N[C@H](C(=O)N[C@@H](CO)C(=O)N1CCC[C@H]1C(=O)N[C@@H](CCC(N)=O)C(=O)N[C@@H](CCCCN)C(=O)N1C[C@H](O)C[C@H]1C(N)=O)[C@@H](C)CC)C(C)C)[C@@H](C)O` [compound 206] (H-GCRTGTCTVQRLAHQIYQFTDKFKDNVAPRSKISPQK[Hyp]-NH2; disulfide 2-7; N-terminus assumed) are 9.89, less than 5.30 and 1.500%.
